Assay results from paper PMC12736018, “Stereoselective Cytotoxicity of Enantiopure 3,3-Dichloro-γ-lactams: Correlating In Vitro Activity with In Vivo Tolerability” (Molecules, 2025).
Converted amounts (≈) assume the structure as drawn.

How the values were obtained:
MCF-7 cells = assay: MTT cell viability assay, MCF-7; assay type: cell-based; details: Homo sapiens, MCF7; MCF-7, MTT, 24 h
Method: (§1) The murine Swiss albino fibroblast (3T3), the immortal human keratinocyte (HaCaT), the squamous cell carcinoma (A431), the human epithelial carcinoma (HeLa) and the human breast adenocarcinoma (MCF-7) cell lines were sourced from Celltec UB (Barcelona, Spain). All cells were maintained and grown in DMEM medium (4.5 g/L glucose) supplemented with 10% (v/v) FBS, 2 mM L-glutamine, 100 U/mL penicillin and 100 μg/mL streptomycin at 37 °C, 5% CO2. Cells were routinely cultured in 75 cm^2 culture flasks and were trypsinized using trypsin-EDTA when the cells reached approximately 80%. Cell concentration in the resulting suspension was assessed using the trypan blue assay, which enables direct discrimination between viable (unstained) and non-viable (blue) cells.
(§2) T3 and HaCaT cells (1 × 10^5 cells/mL), along with A431, HeLa, and MCF-7 cells (5 × 10^4 cells/mL), were cultured at defined seeding densities in the 60 central wells of a 96-well plate. Cells were first incubated for 24 h under standard incubator conditions (5% CO2, 37 °C). After this period, the culture medium was removed, and the cells were incubated for an additional 24 h with their corresponding compound solutions (1 mg/mL) previously diluted in a minimum amount of DMF (dimethylformamide) and then in DMEM medium supplemented with 5% FBS (100 µL) at the required concentration range (20 to 250 µg/mL). Cell viability following exposure to the lactam derivatives was evaluated using two complementary assays: NRU and MTT.
Only living cells can reduce the yellow tetrazolium salt 3-(4,5-dimethyl-2-thiazolyl)-2,5-diphenyltetrazolium bromide (MTT) to insoluble purple formazan crystals. After a 24 h incubation of the cells with their corresponding NPs, the medium was removed and 100 µL of MTT (Sigma-Aldrich, St. Louis, MO, USA) in PBS (5 mg/mL) diluted 1:10 in culture medium without phenol red and without FBS (Lonza, Verviers, Belgium) was added to the cells. After 3 h of incubation, the medium was removed. Thereafter, 100 µL of DMSO (Sigma-Aldrich, St. Louis, MO, USA) was added to each well to dissolve the purple formazan crystals. Agitation and absorbance measurements of the extracted solution were carried out under the same conditions described for the NRU assay. The effect of each treatment was then expressed as the percentage of tetrazolium salt reduction by viable cells relative to untreated controls.
(§3) The half-maximal inhibitory concentration (IC50) values for the different formulations, across cell lines and experimental endpoints, were obtained by fitting the concentration-dependent viability curves. […] These findings reflect the very low cytotoxicity of the compounds toward these cell lines.

HaCaT cells = assay: NRU cell viability assay, HaCaT; assay type: cell-based; details: Homo sapiens, 24 h
Method: as §1, §2
The neutral red uptake (NRU) assay is based on the accumulation of dye in the lysosomes of viable cells. After the cells were incubated for 24 h with the corresponding systems, the medium was removed, and the solutions were incubated with the NR dye (Sigma-Aldrich, St. Louis, MO, USA) solution (50 µg/mL) dissolved in the medium, without FBS and without phenol red (Lonza, Verviers, Belgium), for 3 h. Cells were then washed with sterile PBS, followed by the addition of 100 µL of a solution containing 50% absolute ethanol and 1% acetic acid in distilled water to extract the dye. To promote the total dissolution of the dye, plates were placed in a microtiter-plate shaker for 5 min at room temperature. The absorbance of the resulting solutions was measured at 550 nm (Bio-Rad 550 microplate reader, Bio-Rad California, Hercules, CA, USA). Finally, the effect of each treatment was calculated as the percentage of dye uptake by viable cells relative to the control cells (cells without any treatment). […]

[1] = Fish Embryo Acute Toxicity (FET) assay: lethality and dysmorphogenesis; assay type: in vivo; details: zebrafish (Danio rerio), in vivo; zebrafish embryos exposed 2 to 72 hpf, 1.95-125 µg/mL; read-out: LC50 (lethal concentration 50)
Method: (§4) (2 mM CaCl2·2H2O; 0.5 mM MgSO4·7H2O; 0.75 mM NaHCO3; 0.07 mM KCl). The fish were maintained at a temperature of 26 ± 1 °C on a 14 h light and 10 h dark cycle and were daily fed in the morning with Artemia salina, and with commercial flake food in the afternoon (SDS400, Special Diet Services, Dietex, France). The day before eggs were needed, males and females were placed in a breeding tank with plants at a 2:1 male-to-female ratio. The following morning, eggs were collected 30 min after the lights were turned on. […] Fertilized, non-coagulated, and synchronously divided eggs were selected using a stereomicroscope (Motic SMZ168, Motic China group, Ltd., Xiamen, China) and transferred to 6-well plates (10 embryos/well). Embryos were exposed to freshly prepared tested concentrations of the compound in 0.3× Danieau’s solution. Chemical stock solution was prepared in 100% dimethylsulfoxide (DMSO) and subsequently diluted in Danieau’s buffer with a final DMSO concentration of 1% (v/v). Test was carried out using five concentrations with a negative control, solvent control with 1% of DMSO. Embryos were incubated at 27 ± 1 °C with a light–dark cycle of 14:10 h until 72 h post-fertilization (hpf) under semi-static conditions, as exposure solutions were renewed by freshly prepared solutions every 24 h.
(§5) At 24, 48 and 72 hpf embryos were observed under a stereomicroscope to assess lethality. […] At the end of the test, dysmorphogenesis was evaluated in live embryos only. The average lethality and dysmorphogenesis were calculated for 10 embryos per concentration, followed by averaging the results of at least three independent experiments. […] The Teratogenic Index (TI) was deter-mined as the ratio between the LC50 and EC50 (TI = LC50/EC50).

zebrafish embryos = assay: as above; assay type: in vivo; details: for EC50: Danio rerio, read-out: EC50 (dysmorphogenesis); for teratogenicity classification: TI > 2; for Teratogenic Index (TI = LC50/EC50): zebrafish embryos
Method: as §4, §5

[2] = NRU cell viability assay, A431; assay type: cell-based, human; details: human, A431 cells (squamous cell carcinoma), highest tested concentration (250 µg/mL)
Method: as §1, §2
(§6) The neutral red uptake (NRU) assay is based on the accumulation of dye in the lysosomes of viable cells. After the cells were incubated for 24 h with the corresponding systems, the medium was removed, and the solutions were incubated with the NR dye (Sigma-Aldrich, St. Louis, MO, USA) solution (50 µg/mL) dissolved in the medium, without FBS and without phenol red (Lonza, Verviers, Belgium), for 3 h. Cells were then washed with sterile PBS, followed by the addition of 100 µL of a solution containing 50% absolute ethanol and 1% acetic acid in distilled water to extract the dye. To promote the total dissolution of the dye, plates were placed in a microtiter-plate shaker for 5 min at room temperature. The absorbance of the resulting solutions was measured at 550 nm (Bio-Rad 550 microplate reader, Bio-Rad California, Hercules, CA, USA). Finally, the effect of each treatment was calculated as the percentage of dye uptake by viable cells relative to the control cells (cells without any treatment). Finally, the effect of each treatment was calculated as the percentage of dye retained by viable cells compared with untreated control cells.
as §3

[3] = NRU cell viability assay, HeLa; assay type: cell-based, human; details: human, HeLa cells (epithelial carcinoma), highest tested concentration (250 µg/mL)
Method: as §1, §2, §6, §3

[4] = NRU cell viability assay, MCF-7; assay type: cell-based, human; details: human, MCF-7 cells (breast adenocarcinoma), MCF-7, NRU, highest tested concentration (250 µg/mL)
Method: as §1, §2, §6, §3

Structure (SMILES): C[C@H](c1ccccc1)N1C[C@H](C)C(Cl)(Cl)C1=O [Compound 4]
- IC50 (MCF-7 cells): 77.8 mg/L (≈ 286 µM)
- IC50 (HaCaT cells): > 250 mg/L
- LC50 [1]: 33.2 mg/L (≈ 122 µM)
- EC50 (zebrafish embryos): 11.2 mg/L (≈ 41.3 µM)
- teratogenicity classification (zebrafish embryos): potential teratogens
- embryos exhibiting morphological abnormalities (zebrafish embryos; at 15.6 µg/mL): more than 20%
- Teratogenic Index (TI = LC50/EC50) (zebrafish embryos): 2.95

Structure (SMILES): C[C@@H]1CN([C@@H](C)c2ccccc2)C(=O)C1(Cl)Cl [Compound 3, (R)-3,3-dichloro-4-methyl-1-((S)-1-phenylethyl)pyrrolidin-2-one]
- IC50 (MCF-7 cells): 193 mg/L (≈ 708 µM)
- IC50 (HaCaT cells): > 250 mg/L
- viability at 24 h, 250 µg/mL [2]: 20 to 30%
- viability at 24 h, 250 µg/mL [3]: 20 to 30%
- viability at 24 h, 250 µg/mL [4]: 20 to 30%
- LC50 [1]: 63.8 mg/L (≈ 234 µM)
- EC50 (zebrafish embryos): 18.3 mg/L (≈ 67.1 µM)
- teratogenicity classification (zebrafish embryos): potential teratogens
- Teratogenic Index (TI = LC50/EC50) (zebrafish embryos): 3.5
